Experimental data reported in PubChem BioAssay AID2060621 (Molecular Pharmacology Branch, DTP, NCI, 2025).

Tested on: 324938-238-R-J1-PDC complex spheroids viability
Assay: Anticancer human tumor 324938-238-R-J1-PDC patient-derived bladder carcinoma cell line growth inhibition [CLK]
Conditions: for IC50: curve of first compound; for viability, T/C: stronger effect = lower value
In short: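 Multi-cell-type spheroids combined patient-derived tumor cells with HUVEC endothelial cells and human mesenchymal stem cells. Paired agents were dosed in half-log steps down from about clinical Cmax, or from 10 microM where Cmax was unknown.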

[1] = second compound 0.0316 µM, first compound 0.0316 µM
[2] = second compound 0.0316 µM, first compound 0.1 µM
[3] = second compound 0.0316 µM, first compound 0.316 µM
[4] = second compound 0.0316 µM, first compound 1 µM
[5] = second compound 0.1 µM, first compound 0.0316 µM
[6] = second compound 0.1 µM, first compound 0.1 µM
[7] = second compound 0.1 µM, first compound 0.316 µM
[8] = second compound 0.1 µM, first compound 1 µM
[9] = second compound 0.316 µM, first compound 0.0316 µM
[10] = second compound 0.316 µM, first compound 0.1 µM
[11] = second compound 0.316 µM, first compound 0.316 µM
[12] = second compound 0.316 µM, first compound 1 µM
[13] = second compound 1 µM, first compound 0.0316 µM
[14] = second compound 1 µM, first compound 0.1 µM
[15] = second compound 1 µM, first compound 0.316 µM
[16] = second compound 1 µM, first compound 1 µM
[17] = second compound 3.16 µM, first compound 0.0316 µM
[18] = second compound 3.16 µM, first compound 0.1 µM
[19] = second compound 3.16 µM, first compound 0.316 µM
[20] = second compound 3.16 µM, first compound 1 µM
[21] = second compound 10 µM, first compound 0.0316 µM
[22] = second compound 10 µM, first compound 0.1 µM
[23] = second compound 10 µM, first compound 0.316 µM
[24] = second compound 10 µM, first compound 1 µM
[25] = second compound 0.0316 µM, first compound 0.00316 µM
[26] = second compound 0.0316 µM, first compound 0.01 µM
[27] = second compound 0.1 µM, first compound 0.00316 µM
[28] = second compound 0.1 µM, first compound 0.01 µM
[29] = second compound 0.316 µM, first compound 0.00316 µM
[30] = second compound 0.316 µM, first compound 0.01 µM
[31] = second compound 1 µM, first compound 0.00316 µM
[32] = second compound 1 µM, first compound 0.01 µM
[33] = second compound 3.16 µM, first compound 0.00316 µM
[34] = second compound 3.16 µM, first compound 0.01 µM
[35] = second compound 10 µM, first compound 0.00316 µM
[36] = second compound 10 µM, first compound 0.01 µM
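Note: viability read after seven days of drug exposure.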
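Throughout, for viability, T/C: 100% = DMSO vehicle control wells.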

`COc1cccc2c1C(=O)c1c(O)c3c(c(O)c1C2=O)CC(O)(C(=O)CO)CC3OC1CC(N)C(O)C(C)O1` (stereo unspecified) + CN1CCN(c2cc(C(=O)Nc3cc4cc(-c5cnn(C)c5)ccc4cn3)ccn2)CC1 was tested, and the IC50 (second compound 0.0316 µM) was under 31.6 nM, the IC50 (second compound 0.1 µM) was under 31.6 nM and the IC50 (second compound 0.316 µM) was under 31.6 nM. For the same compound, the IC50 (second compound 1 µM) was under 31.6 nM, the IC50 (second compound 3.16 µM) was under 31.6 nM and the IC50 (second compound 10 µM) was under 31.6 nM. For the same compound, the viability, T/C [1] was 19.4%, the viability, T/C [2] was 14.4% and the viability, T/C [3] was 8.3%. For the same compound, the viability, T/C [4] was 0.88%, the viability, T/C (second compound 0.0316 µM, first compound 3.16 µM) was 0.09% and the viability, T/C (second compound 0.0316 µM, first compound 10 µM) was 0.14%. The viability, T/C [5] was 16.9%, the viability, T/C [6] was 16.5% and the viability, T/C [7] was 8.06%. It also gave a viability, T/C [8] of 0.56%, a viability, T/C (second compound 0.1 µM, first compound 3.16 µM) of 0.09% and a viability, T/C (second compound 0.1 µM, first compound 10 µM) of 0.68%. The viability, T/C [9] was 17.8%, the viability, T/C [10] was 16.2% and the viability, T/C [11] was 4.21%. It also gave a viability, T/C [12] of 0.29%, a viability, T/C (second compound 0.316 µM, first compound 3.16 µM) of 0.07% and a viability, T/C (second compound 0.316 µM, first compound 10 µM) of 0.12%. It also gave a viability, T/C [13] of 0.37%, a viability, T/C [14] of 0.2% and a viability, T/C [15] of 0.1%. The viability, T/C [16] was 0.09%, the viability, T/C (second compound 1 µM, first compound 3.16 µM) was 0.35% and the viability, T/C (second compound 1 µM, first compound 10 µM) was 0.44%. For the same compound, the viability, T/C [17] was 0.12%, the viability, T/C [18] was 0.28% and the viability, T/C [19] was 0.17%. The viability, T/C [20] was 0.06%, the viability, T/C (second compound 3.16 µM, first compound 3.16 µM) was 0.22% and the viability, T/C (second compound 3.16 µM, first compound 10 µM) was 0.3%. The viability, T/C [21] was 0.09%, the viability, T/C [22] was 0.18% and the viability, T/C [23] was 0.26%. The viability, T/C [24] was 0.1%, the viability, T/C (second compound 10 µM, first compound 3.16 µM) was 0.15% and the viability, T/C (second compound 10 µM, first compound 10 µM) was 0.48%.

Work on `CCc1c2c(nc3ccc(O)cc13)-c1cc3c(c(=O)n1C2)COC(=O)[C@]3(O)CC` + CN1CCN(c2cc(C(=O)Nc3cc4cc(-c5cnn(C)c5)ccc4cn3)ccn2)CC1 yielded an IC50 (second compound 0.0316 µM) of under 3.16 nM, an IC50 (second compound 0.1 µM) of under 3.16 nM and an IC50 (second compound 0.316 µM) of under 3.16 nM. The IC50 (second compound 1 µM) was under 3.16 nM, the IC50 (second compound 3.16 µM) was under 3.16 nM and the IC50 (second compound 10 µM) was under 3.16 nM. For the same compound, the viability, T/C [25] was 14.9%, the viability, T/C [26] was 10.1% and the viability, T/C [1] was 11.5%. The viability, T/C [2] was 9.42%, the viability, T/C [3] was 8.03% and the viability, T/C [4] was 1.47%. The viability, T/C [27] was 12.7%, the viability, T/C [28] was 10.3% and the viability, T/C [5] was 8.87%. For the same compound, the viability, T/C [6] was 8.12%, the viability, T/C [7] was 6.95% and the viability, T/C [8] was 1.21%. It also gave a viability, T/C [29] of 10.5%, a viability, T/C [30] of 7.5% and a viability, T/C [9] of 4.44%. For the same compound, the viability, T/C [10] was 3.89%, the viability, T/C [11] was 0.83% and the viability, T/C [12] was 0.18%. It also gave a viability, T/C [31] of 0.42%, a viability, T/C [32] of 0.28% and a viability, T/C [13] of 0.24%. For the same compound, the viability, T/C [14] was 0.06%, the viability, T/C [15] was 0.09% and the viability, T/C [16] was 0.38%. It also gave a viability, T/C [33] of 0.16%, a viability, T/C [34] of 0.17% and a viability, T/C [17] of 0.19%. It also gave a viability, T/C [18] of 0.1%, a viability, T/C [19] of 0.16% and a viability, T/C [20] of 0.14%. For the same compound, the viability, T/C [35] was 0.1%, the viability, T/C [36] was 0.11% and the viability, T/C [21] was 0.17%. For the same compound, the viability, T/C [22] was 0.11%, the viability, T/C [23] was 0.16% and the viability, T/C [24] was 0.16%.

Work on `CCc1c2c(nc3ccc(O)cc13)-c1cc3c(c(=O)n1C2)COC(=O)[C@]3(O)CC` + CNC(=O)c1ccc(Nc2nc(OC3CCCC3)c3c(-c4ccc5nc(C)oc5c4)c[nH]c3n2)c(OC)c1 yielded an IC50 (second compound 0.0316 µM) of under 3.16 nM, an IC50 (second compound 0.1 µM) of under 3.16 nM and an IC50 (second compound 0.316 µM) of under 3.16 nM. For the same compound, the IC50 (second compound 1 µM) was under 3.16 nM, the IC50 (second compound 3.16 µM) was under 3.16 nM and the IC50 (second compound 10 µM) was under 3.16 nM. For the same compound, the viability, T/C [25] was 17.9%, the viability, T/C [26] was 12.3% and the viability, T/C [1] was 12.7%. For the same compound, the viability, T/C [2] was 13%, the viability, T/C [3] was 11.2% and the viability, T/C [4] was 2.24%. The viability, T/C [27] was 17.9%, the viability, T/C [28] was 13.3% and the viability, T/C [5] was 12.5%. The viability, T/C [6] was 12.7%, the viability, T/C [7] was 11.3% and the viability, T/C [8] was 2.05%. The viability, T/C [29] was 14.6%, the viability, T/C [30] was 11.1% and the viability, T/C [9] was 11.8%. For the same compound, the viability, T/C [10] was 12.1%, the viability, T/C [11] was 9.98% and the viability, T/C [12] was 1.99%. For the same compound, the viability, T/C [31] was 12.2%, the viability, T/C [32] was 9.22% and the viability, T/C [13] was 10.1%. It also gave a viability, T/C [14] of 8.69%, a viability, T/C [15] of 8.5% and a viability, T/C [16] of 1.33%. It also gave a viability, T/C [33] of 11.4%, a viability, T/C [34] of 9.74% and a viability, T/C [17] of 8.18%. For the same compound, the viability, T/C [18] was 8%, the viability, T/C [19] was 6.57% and the viability, T/C [20] was 1.29%. For the same compound, the viability, T/C [35] was 10.2%, the viability, T/C [36] was 10.8% and the viability, T/C [21] was 8.22%. It also gave a viability, T/C [22] of 8.16%, a viability, T/C [23] of 6.28% and a viability, T/C [24] of 1.01%.
